In publication PMC11945486, “TAS1R2/TAS1R3 Single-Nucleotide Polymorphisms Affect Sweet Taste Receptor Activation by Sweeteners: The SWEET Project” (Nutrients, 2025):

Target: T1, human TAS1R2-I486V (subunit alone) (Homo sapiens, UniProt Q8TE23, I486V)
T1 construct: expressed in transfected cells; host or cells: HEK293T-Gα16gust44
T1 sequence (Q8TE23 20-839 I486V): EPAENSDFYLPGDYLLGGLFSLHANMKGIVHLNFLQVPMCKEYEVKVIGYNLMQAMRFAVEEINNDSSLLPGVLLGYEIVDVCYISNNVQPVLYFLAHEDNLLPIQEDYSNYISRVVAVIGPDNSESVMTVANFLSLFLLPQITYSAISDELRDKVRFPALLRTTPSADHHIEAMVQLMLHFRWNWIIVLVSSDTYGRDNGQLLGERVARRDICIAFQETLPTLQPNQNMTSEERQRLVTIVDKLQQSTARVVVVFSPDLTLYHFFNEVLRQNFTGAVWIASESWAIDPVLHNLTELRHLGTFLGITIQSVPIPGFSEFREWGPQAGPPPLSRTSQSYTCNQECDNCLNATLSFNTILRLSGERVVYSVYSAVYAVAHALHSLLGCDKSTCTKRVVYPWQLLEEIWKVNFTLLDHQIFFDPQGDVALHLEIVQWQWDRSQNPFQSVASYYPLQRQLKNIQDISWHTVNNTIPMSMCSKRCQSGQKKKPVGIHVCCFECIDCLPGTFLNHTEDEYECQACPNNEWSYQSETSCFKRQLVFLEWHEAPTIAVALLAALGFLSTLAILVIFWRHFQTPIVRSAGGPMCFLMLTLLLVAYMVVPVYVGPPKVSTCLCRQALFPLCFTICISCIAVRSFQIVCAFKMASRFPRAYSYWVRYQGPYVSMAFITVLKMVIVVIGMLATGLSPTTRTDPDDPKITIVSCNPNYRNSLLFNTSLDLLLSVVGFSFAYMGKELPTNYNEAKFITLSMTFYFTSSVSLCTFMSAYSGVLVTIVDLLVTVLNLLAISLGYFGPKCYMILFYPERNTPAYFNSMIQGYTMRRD
Assay: Calcium mobilisation assay, TAS1R2-I486V subunit alone
Type: cell-based
Source text: The coding sequences for TAS1R2 and TAS1R3 were commercially synthesised, and the human codon was optimised for expression in human cells. The coding sequences of human TAS1R2 and TAS1R3 were subcloned and inserted into the mammalian expression vectors pcDNA6/myc-HisA and pcDNA4/myc-HisA (Invitrogen; Thermo Fisher Scientific; Illkirch, France) between the EcoRI and NotI restriction sites, generating the plasmids pcDNA6-TAS1R2 and pcDNA4-TAS1R3, respectively. To increase protein expression in mammalian cells, an upstream start codon was used, which was a sequence called MAX, corresponding to the QBI SP163 element also described in pcDNA4-HisMax (Invitrogen; Thermo Fisher Scientific; Illkirch, France). To measure the expression level of the receptor by immunohistochemistry, we used the FLAG sequence ([…]) in the C-terminal position, which encodes the FLAG tag epitope. […]
The HEK293T cells were kindly provided by Jay P. Slack (Givaudan Flavors Corporation; Cincinnati, OH, USA). […] The fluorescence intensity was measured for 90 s (excitation 488 nm, emission 510 nm) in an automated fluorometric FlexStation®3 Multi-Mode microplate reader (Molecular Devices; San Jose, CA, USA). […] The Ca^2+ changes were expressed as fractional changes in fluorescent light intensity: ΔF/F = (F − F0)/F0, where F was the fluorescent light intensity at each point, and F0 was the value of emitted fluorescent light prior to stimulus application. To calculate dose–response relationships, the changes in fluorescence upon stimulus application were averaged, mock-subtracted and baseline-corrected. […] The half-maximal effective concentrations (EC50 values) and maximal signal amplitudes were calculated using SigmaPlot software (version 15.0) (Systat Software; San Jose, CA, USA).
For in vitro calcium mobilisation assay performed on hTAS1R2-SNPs, hTAS1R3-SNPs and mTAS1R3-I60T, 6 to 7 concentrations were tested for each sweet compound, plus buffer alone. All concentration–receptor combinations were measured in duplicate, and each experiment was repeated at least 4 times (8 wells/concentration). […]

EC50: 124 ± 14.1 µM
R1 = Variant EC50/WT EC50: 1.4
Max ΔF/F0 (maximal signal amplitude): 0.39 ± 0.02
SMILES: C=C(C)[C@@H]1CC=C(/C=N/O)CC1 [Perillartine, perillartine]
